Data set [1] relates to primary rat glial cells. Kind of data set: Nitrite production in LPS-stimulated primary glial cultures (Griess). The format is cell-based. The conditions noted are these: Glial cell, 24 h pre-incubation, 18 h co-incubation with LPS 1 μg/mL, read-out: IC50 nitrite reduction. An excerpt: (§1) Therefore, we envisaged the study of compounds 5a–t as potential anti-inflammatory agents. We used primary rat glial cells treated with lipopolysaccharide (LPS) to induce the production of nitrites and ROS as a model of glial activation. Nitrite production is directly proportional to the expression of the iNOS, that is over-expressed when LPS activates glial cells. ROS production is proportional to NOX activation after stimulation with LPS. Results are summarized in Table 2 as IC50s of nitrite production reduction and ROS production reduction. We have included sulforaphane as control in all experiments (see the Supporting Information).
Glial cells were pre-incubated with increasing concentrations of compounds for 24 hours. Then, treatments were removed and cells were incubated with LPS (1 μg/mL) alone or in presence of each compound at the desired concentration. Nitrite production was assessed 18 hours later by modified Griess assay. Briefly, samples (150 μl) were mixed with dapsone (75 μl) and NEDA (75 μl), and the mixture was incubated at room temperature for 5 min. Light absorption was measured at 550 nm in a microplate reader (Labtech, Offenburg, Germany). All data were normalized to basal nitrite production, considering this value as 100% of nitrite production. IC50 values were calculated from dose-response curves represented as percentage of nitrite production reduction induced by the different concentrations of each compound.
(§2) Mixed glial cultures were obtained from cerebral cortex of 2-5 day-old Sprague-Dawley rats. After removal of blood vessels and meninges, the forebrains were dissociated in DMEM/F12 medium. After mechanical dissociation, cells were plated (3x10^5 cells/ml) in DMEM/F12 medium with 20% fetal bovine serum (FBS) and 1 % penicillin/streptomycin (10,000 units), at 37 °C and in a 5 % CO2-supplemented air atmosphere. After 5 days, medium was substituted by DMEM/F12 medium with 10 % FBS. Cells were cultured for 7-10 days before treatment.
Primary rat glial cells were treated with compounds 5a-t at increasing concentrations (3, 10, 30 and 60 µM) during 24 h. Thereafter, treatments were removed and glial cells were co-incubated with increasing concentrations of each compound and LPS (1 µg/mL) for 18 h more. At the end of this period, supernatant was collected and the presence of nitrites was analyzed by the Griess method with modifications.^20 Each plate included non-treated cells as basal nitrite production, sulforaphane (SFN, 10 µM) as positive control. Briefly, samples (150 µl) were mixed with DAPSONE (75 µl) and NEDA (75 µl), and the mixture was incubated at room temperature for 5 min. Light absorption was measured at 550 nm in a microplate reader (Labtech, Offenburg, Germany). All data were normalized to basal nitrite production, considering this value as 100% of nitrite production. EC50 values were calculated from dose-response curves represented as percentage of nitrite production reduction induced by the different concentrations of each compound. Concentration response curves were fitted by non-linear regression analysis of individual concentration-response curves using GraphPad Prism software (San Diego, CA, USA). EC50 values are expressed as mean ± SEM of four different experiments in triplicate.

Data set [2] deals with primary rat glial cells. Kind of data set: ROS production in LPS-stimulated primary glial cultures (H2DCFDA). The data set is classed as cell-based. The conditions noted are these: Glial cell, 24 h pre-incubation, 18 h co-incubation with LPS, 3 h with fluorescent dye, read-out: IC50 ROS reduction.
From the text: as §1
Besides the increase in nitrite production, it is well known that LPS stimulation of microglia also induces the activation of NOX, which induces superoxide free radical production. In fact, this mechanism is synergistic with the expression of iNOS and the production of nitrites. In this respect, there is a body of evidence showing that NOX activation is a major contributor to ROS oxidative stress and neuronal death in AD[57][58]. […] In general, potency to reduce ROS production increased from ortho to para and meta as observed above.
(§3) Primary glial cells were cultured in bottom transparent 96-well black plates following standard protocol. Cells were pre-incubated with the corresponding compound at the selected concentrations, for 24 hours, and therafter, co-incubated with the corresponding compound and LPS (1 μM) during 18 h more. Then, treatments were removed and cells were loaded with the fluorescent probe 2′,7′-dichlorodihydrofluorescein diacetate (H2DCFDA) (10 μM) for 45 minutes in serum free glial culture medium. All experiments included cells treated with culture medium alone (basal). Cells were washed twice with culture medium and fluorescence intensity was recorded in a Fluostar Optima multiwall pate reader (BMG Labtech, Offenburg, Germany) at 485/520 nm as excitation and emission wavelengths respectively, each hour, during 3 hours period. Data were normalized with respect to basal conditions that were considered as 100%.
as §3, with “µM)” for “μM)”, “2',7'-dichlorodihydrofluorescein” for “2′,7′-dichlorodihydrofluorescein”
as §2

The target in the next data set is T1, GSK3β (Homo sapiens, UniProt P49841).
T1 construct: purchased Promega V1991
Briefly: GSK3β inhibition, luminescence Kinase-Glo assay. The data set is classed as biochemical. As to conditions: for Ki: calculated from IC50 by Cheng-Prusoff equation, Km ATP 2.345 µM, read-out: Ki (apparent equilibrium dissociation constant); for IC50: four concentrations 0.1, 1, 10, 30 μM, ATP 1 μM, 1 h.

The subject of another data set is HepG2 cells. Briefly: Hepatotoxicity in HepG2 cell line (MTT). The conditions noted are these: 24 h.

Data on 16 compounds can be found in PMC5374710, “Discovery of the first dual GSK3β inhibitor/Nrf2 inducer. A new multitarget therapeutic strategy for Alzheimer’s disease” (Scientific Reports, 2017).

Where “and” joins values, the source holds several entries; their conditions need not be identical. Equal entries are not always repeated.

T1 sequence (P49841 whole entry): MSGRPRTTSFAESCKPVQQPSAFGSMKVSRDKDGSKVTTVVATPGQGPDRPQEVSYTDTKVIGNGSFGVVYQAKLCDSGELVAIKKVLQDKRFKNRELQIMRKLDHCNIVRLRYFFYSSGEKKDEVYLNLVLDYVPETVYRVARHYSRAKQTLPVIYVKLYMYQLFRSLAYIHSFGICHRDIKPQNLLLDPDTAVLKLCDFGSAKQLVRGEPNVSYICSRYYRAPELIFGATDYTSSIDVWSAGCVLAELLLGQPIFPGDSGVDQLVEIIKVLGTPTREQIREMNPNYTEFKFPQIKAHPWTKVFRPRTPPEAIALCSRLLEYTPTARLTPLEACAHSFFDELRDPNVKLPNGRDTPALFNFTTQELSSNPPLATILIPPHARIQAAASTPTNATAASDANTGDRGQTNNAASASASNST
Description for GSK3β: GSK3β inhibitory activity was evaluated using the method developed by Baki[66], with modifications. Compounds were dissolved in assay buffer, containing 40 mM Tris (pH 7.5), 20 mM MgCl2, 0.1 mg/ml BSA (bovine serum albumin) and 50 μM dithiothreitol (DTT) at the desired concentrations. Firstly, 10 μl of enzyme (10 ng) and 10 μl of each compound were mixed for 30 min. Then, 20 μl of a mixture of ATP (1 μM) and GSK3β peptidic substrate were added to each well. The mixture was incubated for 60 min at 30 °C. Thereafter, the remaining ATP concentration was measured with the Kinase-Glo system following instructions from the supplier. Luminescence was measured in an Orion II microplate luminometer (Berthold, Germany) as relative light units (RLU). […] IC50 values were calculated by non-linear regression analysis of individual concentration-response curves using GraphPad Prism 5.0 software (San Diego, CA, USA).
The ability of the compounds to inhibit GSK3β was evaluated using the method developed by Baki^9 with some modifications. The tested compounds were dissolved in assay buffer, containing 40 mM Tris (pH 7.5), 20 mM MgCl2, 0.1 mg/ml BSA (bovine serum albumin) and 50 µM dithiothreitol (DTT), to achieve final reaction concentrations of 0.1, 1, 10 and 30 µM. […] The GSK3β inhibition assay was performed in white 96-well plates, in duplicates. Firstly, 10 µl of enzyme (10 ng) were added to each well, followed by 10 µl of the compounds at the desired concentration. After 30 minutes, 20 µl of a mixture of ATP and GSK3β peptidic substrate were added to each well, achieving a final concentration of 1 µM of ATP and 25 of µM peptidic substrate. The mixture was incubated at 30 °C for 60 minutes. Once the reaction was finished, the remaining ATP concentration was measured by adding 40 µl/well of Kinase-Glo reagent. The luminescence was measured in an Orion II microplate luminometer (Berthold, Germany) as relative light units (RLU). The luminescence recorded is proportional to the amount of ATP present in each well.
Apparent Ki for each compound were calculated from GSK3β Km value for ATP, applying the Cheng-Prusoff equation^10,11 in its simplified form: Ki = IC50/(1+([S]/Km)), in which S refers to the ATP concentration and Km is the Michaelis constant of the substrate for GSK3β.
Description for HepG2 cells: Thus, it is relevant to study the potential neurotoxicity and hepatotoxicity of the novel dual GSK3β inhibitors-Nrf2 inducers 5a–t.
Viability was measured as MTT reduction in presence of increasing concentrations of derivatives. Values are expressed as LD50 calculated from dose-response curves of four different concentrations.
HepG2 cells were cultured according to supplier indications in EMEM supplemented with 10 % heat-inactivated FBS, 100 µg/mL streptomycin and 100 units/mL penicillin. Cells were maintained at 37 °C in humidified atmosphere of 95 % air and 5 % CO2. For experimental procedures, cells were cultured in 96-well plates at density of 1x10^5 cells/well. Treatments were performed in 1% FBS medium unless other concentration was specified. Cells were used from 4 up to 13 passages.
Cells were cultured in 48-well (SH-SY5Y, 1x10^5 cells per well) or 96-well plates (HepG2, 1x10^5 cells per well) for 24 h. […] Control cells were incubated with the same concentration of DMSO (0.1 % final concentration) without any drug.

Regarding `Cc1ccc(C2C(C#N)=C(N)Oc3[nH]nc(C)c32)cc1` (centres unmarked) [Compound 5g, 6-Amino-3-methyl-4-(4-methylphenyl)-2,4-dihydropyrano[2,3-c]pyrazole-5-carbonitrile], the IC50 in the data set on primary rat glial cells [1] was 22.3 ± 3.82 µM; with primary rat glial cells [2], 45.1 ± 5.33 µM; against GSK3β, 17.5 ± 1.9 µM. Further, at GSK3β, the Ki is 12.3 µM. Also, the “HepG2 LD50” value with HepG2 cells is on record as > 100 µM.
Consider `Cc1n[nH]c2c1C(c1ccco1)C(C#N)=C(N)O2` (centres unmarked) [Compound 5q, 6-Amino-4-(furan-2-yl)-3-methyl-2,4-dihydropyrano[2,3-c]pyrazole-5-carbonitrile], for which the IC50 with primary rat glial cells [1] came out at 17.5 ± 2.45 µM; in the data set with primary rat glial cells [2] it was 22.5 ± 7.78 µM; on GSK3β it was 14.8 ± 4.8 µM. For the same compound, the Ki on GSK3β was 10.4 µM. Besides, the “HepG2 LD50” value with HepG2 cells is listed as > 100 µM.
Turning to `Cc1[nH]nc2c1C(c1cccc([N+](=O)[O-])c1)C(C#N)=C(N)O2` (centres unmarked) [Compound 5o, 6-Amino-3-methyl-4-(3-nitrophenyl)-2,4-dihydropyrano[2,3-c]pyrazole-5-carbonitrile], the half-maximal inhibitory concentration (IC50) in the data set with primary rat glial cells [1] turned out to be 40.8 ± 2.23 µM; in the data set on primary rat glial cells [2] it was 30.8 ± 4.99 µM; at GSK3β, 7.2 ± 1.6 µM. In addition, the Ki at GSK3β is 5.04 µM. Also, the “HepG2 LD50” value in the data set on HepG2 cells is reported as > 100 µM.
Consider `Cc1n[nH]c2c1C(c1ccccc1Br)C(C#N)=C(N)O2` (centres unmarked) [Compound 5l, 6-Amino-4-(2-bromophenyl)-3-methyl-2,4-dihydropyrano[2,3-c]pyrazole-5-carbonitrile], for which the results for the half-maximal inhibitory concentration (IC50) in the data set on primary rat glial cells [1], with primary rat glial cells [2] and against GSK3β were 26.7 ± 1.95 µM, 38.6 ± 7.16 µM and > 30 µM, respectively. The “HepG2 LD50” value in the data set with HepG2 cells is recorded as > 100 µM.
Regarding `Cc1[nH]nc2c1C(c1ccccc1)C(C#N)=C(N)O2` (centres unmarked) [Compound 5a, 6-Amino-3-methyl-4-phenyl-2,4-dihydropyrano[2,3-c]pyrazole-5-carbonitrile], the IC50 in the data set on primary rat glial cells [1] was > 60 µM; in the data set with primary rat glial cells [2], > 60 µM; against GSK3β, > 30 µM. For the same compound, the “HepG2 LD50” value in the data set with HepG2 cells is > 100 µM.
Take `Cc1[nH]nc2c1C(c1ccc(Br)cc1)C(C#N)=C(N)O2` (centres unmarked) [Compound 5m, 6-Amino-4-(4-bromophenyl)-3-methyl-2,4-dihydropyrano[2,3-c]pyrazole-5-carbonitrile]: the IC50 in the data set on primary rat glial cells [1] came to 11.4 ± 2.27 µM; in the data set on primary rat glial cells [2], 33.2 ± 7.36 µM; against GSK3β, 3.77 ± 2 µM. For the same compound, on GSK3β, the Ki was 2.64 µM. In the data set on HepG2 cells, the “HepG2 LD50” value is > 100 µM.
Turning to `Cc1[nH]nc2c1C(c1ccccc1[N+](=O)[O-])C(C#N)=C(N)O2` (centres unmarked) [Compound 5n, 6-Amino-3-methyl-4-(2-nitrophenyl)-2,4-dihydropyrano[2,3-c]pyrazole-5-carbonitrile], the IC50 in the data set with primary rat glial cells [1] was 15.8 ± 5.23 µM; in the data set on primary rat glial cells [2], 19.9 ± 4.89 µM; at GSK3β it was 3.9 µM and 3.89 µM. The Ki on GSK3β was 2.72 µM. In addition, the “HepG2 LD50” value in the data set on HepG2 cells is reported as > 100 µM.
Take `COc1ccccc1C1C(C#N)=C(N)Oc2n[nH]c(C)c21` (centres unmarked) [Compound 5b, 6-Amino-4-(2-methoxyphenyl)-3-methyl-2,4-dihydropyrano[2,3-c]pyrazole-5-carbonitrile]: the IC50 in the data set with primary rat glial cells [1] was 43.6 ± 6.45 µM; in the data set with primary rat glial cells [2] it was > 60 µM; at GSK3β, 16.4 ± 1.8 µM. The Ki at GSK3β was 11.5 µM. The “HepG2 LD50” value with HepG2 cells was > 100 µM.
For the compound `COc1cccc(C2C(C#N)=C(N)Oc3n[nH]c(C)c32)c1` (centres unmarked) [Compound 5c, 6-Amino-4-(3-methoxyphenyl)-3-methyl-2,4-dihydropyrano[2,3-c]pyrazole-5-carbonitrile], the IC50 in the data set with primary rat glial cells [1] is 12.9 ± 0.86 µM; in the data set with primary rat glial cells [2], 18.1 ± 5.36 µM; against GSK3β, 7.2 ± 0.7 µM. Moreover, the Ki at GSK3β was 5.04 µM. In addition, in the data set with HepG2 cells, the “HepG2 LD50” value was > 100 µM.
On to `Cc1[nH]nc2c1C(c1cccnc1)C(C#N)=C(N)O2` (centres unmarked) [Compound 5s, 6-Amino-3-methyl-4-(pyridin-3-yl)-2,4-dihydropyrano[2,3-c]pyrazole-5-carbonitrile], for which the IC50 in the data set with primary rat glial cells [1] is 7.23 ± 1.1 µM; with primary rat glial cells [2], 15.2 ± 3.73 µM; at GSK3β, > 30 µM. Besides, the “HepG2 LD50” value with HepG2 cells is > 100 µM.
On to `Cc1[nH]nc2c1C(c1cccc(Cl)c1)C(C#N)=C(N)O2` (centres unmarked) [Compound 5j, 6-Amino-4-(3-chlorophenyl)-3-methyl-2,4-dihydropyrano[2,3-c]pyrazole-5-carbonitrile], for which the IC50 is 5.11 ± 0.65 µM with primary rat glial cells [1], 24 ± 2.58 µM with primary rat glial cells [2] and 20.5 ± 8 µM against GSK3β. Moreover, the Ki at GSK3β was 14.4 µM. Further, the “HepG2 LD50” value with HepG2 cells is listed as > 100 µM.
Regarding `COc1ccc(C2C(C#N)=C(N)Oc3n[nH]c(C)c32)cc1` (centres unmarked) [Compound 5d, 6-Amino-4-(4-methoxyphenyl)-3-methyl-2,4-dihydropyrano[2,3-c]pyrazole-5-carbonitrile], the IC50 stood at 35.4 ± 2.57 µM in the data set on primary rat glial cells [1], 19.9 ± 4.89 µM in the data set on primary rat glial cells [2] and 6.6 ± 1.7 µM at GSK3β. In addition, the Ki at GSK3β was 4.63 µM. The “HepG2 LD50” value with HepG2 cells is listed as > 100 µM.
Turning to `Cc1n[nH]c2c1C(c1ccccc1Cl)C(C#N)=C(N)O2` (centres unmarked) [Compound 5i, 6-Amino-4-(2-chlorophenyl)-3-methyl-2,4-dihydropyrano[2,3-c]pyrazole-5-carbonitrile], the IC50 in the data set on primary rat glial cells [1] and in the data set with primary rat glial cells [2] was > 60 µM throughout. The “HepG2 LD50” value with HepG2 cells is reported as > 100 µM.
With `Cc1n[nH]c2c1C(c1cccs1)C(C#N)=C(N)O2` (centres unmarked) [Compound 5r, 6-Amino-3-methyl-4-(thiophen-2-yl)-2,4-dihydropyrano[2,3-c]pyrazole-5-carbonitrile], the 50% inhibitory concentration (IC50) is > 60 µM with primary rat glial cells [1], > 60 µM with primary rat glial cells [2] and > 30 µM against GSK3β. In the data set on HepG2 cells, the “HepG2 LD50” value was > 100 µM.
`Cc1n[nH]c2c1C(c1ccc(Cl)cc1)C(C#N)=C(N)O2` (centres unmarked) [Compound 5k, 6-Amino-4-(4-chlorophenyl)-3-methyl-2,4-dihydropyrano[2,3-c]pyrazole-5-carbonitrile]: the figures for the concentration for half-maximal inhibition (IC50) in the data set on primary rat glial cells [1], with primary rat glial cells [2] and against GSK3β were 26 ± 2.74 µM, > 60 µM and 6.29 ± 2.6 µM, respectively. At GSK3β, the Ki was 4.41 µM. The “HepG2 LD50” value in the data set with HepG2 cells is given as > 100 µM.
With `Cc1cccc(C2C(C#N)=C(N)Oc3n[nH]c(C)c32)c1` (centres unmarked) [Compound 5f, 6-Amino-3-methyl-4-(3-methylphenyl)-2,4-dihydropyrano[2,3-c]pyrazole-5-carbonitrile], the IC50 turned out to be 13.4 ± 1.44 µM in the data set on primary rat glial cells [1], 32.6 ± 6.79 µM in the data set on primary rat glial cells [2] and 21.4 ± 4.6 µM against GSK3β. Besides, the Ki on GSK3β is 15 µM. Further, in the data set on HepG2 cells, the “HepG2 LD50” value is reported as > 100 µM.

Broadly, the IC50 is the point on the concentration scale where inhibition reaches its midpoint.
